According to US5981517A, “Androstene derivatives” (priority 1997, dated 1999):

Tests used:
[1] = system: forearms of a human volunteer; experiment: Further human vasoconstriction testing, Method 1; assay type: in vivo
Method: The mixtures, in 50 μL amounts, were applied to circular patches (8 mm diameter). After evaporation of ethanol, the patches were applied to the forearms of a human volunteer, and covered with a water impervious film for 3 hr. The intensity of vasoconstriction (scale 0-4) was judged at various time intervals after removal of the patches. The grading scale was as follows: 0, normal skin; 1, slight pallor of indistinct outline; 2, pallor with at least two corners outlined; 3, even pallor with a clear outline of the application sites; 4, very intense pallor. The skin tests (2-4 tests on each compound) were performed on the same person.

[2] = biological target: T1, rat lung glucocorticoid receptor (Rattus norvegicus, UniProt P06536); experiment: Receptor binding studies ([3H]triamcinolone acetonide displacement); settings: further receptor binding studies (Table X); dexamethasone = 100; * mean ± SE of 3-5 results
T1 construct: Immediately after resection of the lungs, the tissue was frozen in ice; The cytosol was prepared; from tissue; host or cells: lung cytosol of adrenalectomized male Sprague-Dawley rats
T1 sequence (P06536 1-795): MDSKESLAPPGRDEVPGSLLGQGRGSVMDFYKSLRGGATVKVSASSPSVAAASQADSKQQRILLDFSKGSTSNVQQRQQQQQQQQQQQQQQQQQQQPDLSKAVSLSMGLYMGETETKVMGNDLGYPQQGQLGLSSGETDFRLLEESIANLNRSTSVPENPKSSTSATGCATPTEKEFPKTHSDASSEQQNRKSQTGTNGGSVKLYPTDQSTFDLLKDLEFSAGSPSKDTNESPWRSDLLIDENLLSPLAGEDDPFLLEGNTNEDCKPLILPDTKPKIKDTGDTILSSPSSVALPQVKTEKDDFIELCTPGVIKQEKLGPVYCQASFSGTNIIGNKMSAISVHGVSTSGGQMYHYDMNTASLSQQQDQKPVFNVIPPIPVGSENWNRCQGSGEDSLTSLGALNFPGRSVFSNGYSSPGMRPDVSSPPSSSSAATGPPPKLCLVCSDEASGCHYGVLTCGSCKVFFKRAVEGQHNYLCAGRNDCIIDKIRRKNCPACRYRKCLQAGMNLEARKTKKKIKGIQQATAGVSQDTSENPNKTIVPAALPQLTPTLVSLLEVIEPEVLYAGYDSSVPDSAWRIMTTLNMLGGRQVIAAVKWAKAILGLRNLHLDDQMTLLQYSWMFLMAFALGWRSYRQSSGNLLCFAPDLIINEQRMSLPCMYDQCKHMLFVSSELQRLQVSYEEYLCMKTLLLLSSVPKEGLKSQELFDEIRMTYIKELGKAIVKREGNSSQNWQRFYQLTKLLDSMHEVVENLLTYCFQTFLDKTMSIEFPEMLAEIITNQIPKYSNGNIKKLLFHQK
Method: Male Sprague-Dawley rats, each weighing 150 to 200 g, were used 6 days after adrenalectomy. Rats were sacrificed by decapitation. Immediately after resection of the lungs, the tissue was frozen in ice. […] Portions (5 ml) of the cytosol were frozen in liquid nitrogen and stored at -80° C.
The cytosol was thawed in a water bath and diluted with 1 part of incubation buffer containing a 15 mM concentration of diisopropyl fluorophosphate. […] After a 2 hour incubation period at room temperature (24° C.), the unbound steroid was removed by addition of a 2% suspension of activated charcoal in incubation buffer (400 μL). The mixture was incubated for 5 minutes at room temperature and then was centrifuged at about 10,000 g for 3 minutes in the microcentrifuge. The radioactivity (cpm) in the supernatant (400 μL) was determined by liquid scintillation counting.
The data is fitted to the following logistic function:
B=T-T * C^N /(C^N +IC50^N)+NS,
where B=CPM in the presence of competitor, T=CPM in the absence of competitor, C=competitor concentration, N=Hill slope factor, and NS=cpm under non-specific binding conditions.
For the representative compound of the invention B, receptor binding affinity was investigated with and without Δ^1 -cortienic acid in the incubation solution to study the effect of Δ^1 -cortienic acid on the receptor binding.
Further studies to evaluate the relative receptor binding affinities of compounds of the invention, other compounds of formula (VII) hereinabove and well-known anti-inflammatory steroids were undertaken, using the methods described in the RECEPTOR BINDING STUDIES set forth above. […] For comparison purposes, the following compounds having formula (VII) above were also tested: […]

in vitro = in vitro ADME; settings: rat, lung cytosol
Method: To determine that the compounds of the invention can be stable during the incubation period, the test compounds A, B, C, and D were investigated for their stabilities at the incubation conditions, which are room temperature and 2 hours, for receptor binding studies. The frozen cytosol which was made for the receptor binding study was thawed in a water bath and diluted with 1 part of incubation buffer (10 mM Tris/HCl, 10 mM sodium molybdate, and 2 mM 1,4-dithiothreitol) containing a 15 mM concentration of enzyme inhibitor, diisopropyl fluorophosphate. Portions (560 μL) of the diluted cytosol were added to centrifuge tubes containing 80 μL portions of blank incubation buffer instead of volume of tracer ([^3 H]triamcinolone acetonide) which would be used in the receptor binding study (RBS), 80 μL of solution of a Δ^1 -cortienic acid (0.1 mM) in buffer (the final concentration of Δ^1 -cortienic acid in the incubation medium was […]), and 80 μL of 100,000 nM of concentrations of test compounds in ethanol to give a final concentration of 10,000 nM. This mixture was kept at room temperature for 2 hours. Samples of 0.1 mL were taken at appropriate time intervals (0, 0.5, 1, 1.5, 2 hours) and were mixed with 0.2 mL of acetonitrile containing 5% DMSO. Each mixture was centrifuged and the supernatant were injected in the HPLC.
Male Sprague-Dawley rats, each weighing 150 to 200 g, were used 6 days after adrenalectomy. Rats were sacrificed by decapitation. Immediately after resection of the lungs, the tissue was frozen in ice. The cytosol was prepared using a slight modification of a previously described method (Dahlberg, 1984); After addition of 6 volumes of ice-cold incubation buffer (10 mM Tris/HCl, 10 mM sodium molybdate, and 2 mM 1,4-dithiothreitol), the tissue was homogenized with the Virtis 45 homogenizer at full speed, for 4 periods of 10 seconds with a 10-second cooling period between each step. The homogenate was centrifuged at 35,000 g for 1 hour at 4° C. in a Beckman ultracentrifuge L8-70M equipped with a T170 rotor. Portions (5 ml) of the cytosol were frozen in liquid nitrogen and stored at -80° C.

skin = experiment: Skin weight test, 10 days of topical treatment in the rat; assay type: in vivo, Male Sprague-Dawley rats
Method: Male Sprague-Dawley rats, weighing about 210 g, were lightly anesthetized with ether, shaved and marked in three areas on each flank with intradermally injected blue ink. […] Treated control animals received daily topical administration of the vehicle (DMF) alone. Solvent and test compound solutions (10 μL) were applied once daily for 10 consecutive days, with […] necessary. On the eleventh day, the animals were sacrificed, their skins were removed and 16 mm diameter plugs were punched out from each area. The plugs were scraped carefully to remove subcutaneous fat and muscle, then they were blotted on filter paper and weighed. Skin atrophy is a known side effect associated with topically applied anti-inflammatory steroids.

thymi = system: thymi; parameters: species or system male Sprague-Dawley rats; settings: rat, in vivo, sc
Method: Several further studies were undertaken to determine the effects of a selected compound of the invention and prior art steroids on thymi weights in rats when the drugs were systemically administered. In each of these studies, male Sprague-Dawley rats were used. The test compounds were suspended in 0.5% CMC (carboxymethylcellulose) and injected subcutaneously once daily for three days. On the fifth day (48 hours following the last treatment), the animals were sacrificed and the thymi weights were recorded. Body weight gains were measured 24 hours after the last treatment. From the test results, the TED40 's (thymolytic effective doses, that is, doses required to achieve 40% inhibition of thymi weight) and relative potencies of a representative compound of the invention and reference steroids were calculated. […] It is evident that the higher the inhibition of thymus activity at a given dose, the more toxic the compound is.

granuloma / thymolysis = experiment: Comparison of local effect and systemic side-effects (therapeutic index); assay type: in vivo, rat; settings: granuloma relative potency / thymolysis relative potency
Method: The test compound was dissolved in acetone and aliquots of varying concentrations were injected into cotton pellets. The pellets were dried and then one pellet was implanted beneath the skin of each test rat. Six days later, the animals were sacrificed and the granulation tissue (granuloma) which formed in and around the implanted pellet was removed, dried and weighed. In addition, the thymi and adrenals were removed and weighed.
Several further studies were undertaken to determine the effects of a selected compound of the invention and prior art steroids on thymi weights in rats when the drugs were systemically administered. In each of these studies, male Sprague-Dawley rats were used. The test compounds were suspended in 0.5% CMC (carboxymethylcellulose) and injected subcutaneously once daily for three days. On the fifth day (48 hours following the last treatment), the animals were sacrificed and the thymi weights were recorded. Body weight gains were measured 24 hours after the last treatment.
The ED50 's calculated for the local cotton pellet granuloma assay and the TED40 's calculated on the basis of thymus inhibition testing as described above were used to arrive at relative potency and a therapeutic index for a representative species of the invention as compared to prior art steroids.

[3] = 24 Hours, 1 hour re-occlusion at 20-21 hours, 0.01 mM
[4] = 24 Hours, 1 hour re-occlusion at 20-21 hours, 0.05 mM
[5] = 24 Hours, 1 hour re-occlusion at 20-21 hours, 0.1 mM
[6] = 24 Hours, 1 hour re-occlusion at 20-21 hours, 0.5 mM

SMILES | Vasoconstriction activity ([1]; 3 Hours, 0.01 mM) | Vasoconstriction activity ([1]; 3 Hours, 0.05 mM) | Vasoconstriction activity ([1]; 3 Hours, 0.1 mM) | Vasoconstriction activity ([1]; 3 Hours, 0.5 mM) | Vasoconstriction activity ([1]; 3 Hours, 1 mM) | Vasoconstriction activity ([1]; 3 Hours, 5 mM) | Vasoconstriction activity ([1]; 20 Hours, 0.01 mM) | Vasoconstriction activity ([1]; 20 Hours, 0.05 mM) | Vasoconstriction activity ([1]; 20 Hours, 0.1 mM) | Vasoconstriction activity ([1]; 20 Hours, 0.5 mM) | Vasoconstriction activity ([1]; 20 Hours, 1 mM) | Vasoconstriction activity ([1]; 20 Hours, 5 mM) | Vasoconstriction activity [1, 3] | Vasoconstriction activity [1, 4] | Vasoconstriction activity [1, 5] | Vasoconstriction activity [1, 6] | RBA [2] | remaining at 2 h (in vitro) [%] | further results
CCOC(=O)[C@@]1(OC(=O)CCl)CC[C@H]2[C@@H]3CCC4=CC(=O)C=C[C@]4(C)[C@H]3[C@@H](O)C[C@@]21C [Compound R, ethyl 17α-chloroacetoxy-11β-hydroxyandrosta-1,4-dien-3-one-17β-carboxylate] | 0 | 0 | 0 | 1 | 1 | 1 | 0 | 0 | 0 | 0 | 0 | 0 | 0 | 0 | 0 | 0 | 22 | 30 | 
CCCC(=O)O[C@]1(C(=O)CO)CC[C@H]2[C@@H]3CCC4=CC(=O)CC[C@]4(C)[C@H]3[C@@H](O)C[C@@]21C [Hydrocortisone 17-butyrate] |  |  |  |  |  |  |  |  |  |  |  |  |  |  |  |  |  |  | Wet skin weight, Treated, Decrease (skin; percent decrease of the control, treated flank): 13.1%; Wet skin weight, Untreated, Decrease (skin; percent decrease of the control, untreated flank): 14.0%; Body wt. gain (skin; topical 0.1%, daily dose 30 μg, 10 days): 45.7 ± 10.6 g; Thymus wt. (skin; topical 0.1%, daily dose 30 μg, 10 days, mean ± S.E.): 540 ± 61 mg; Wet skin weight, Treated (skin; treated left flank, topical 0.1%, 30 μg daily, 10 days, mean ± S.E.): 86.3 ± 1.5 mg; Wet skin weight, Untreated (skin; untreated right flank, topical 0.1%, 30 μg daily, 10 days, mean ± S.E.): 72.0 ± 4.7 mg; Thymolysis, Relative Potency at ED40 Level (b) (thymi): 57; Therapeutic Index (a/b) (granuloma / thymolysis): 1.23
CCOC(=O)[C@@]1(OC(=O)C(C)Cl)CC[C@H]2[C@@H]3CCC4=CC(=O)C=C[C@]4(C)[C@H]3[C@@H](O)C[C@@]21C (stereo partly drawn) [Q, ethyl 17α-(α-chloro)propionyloxy-11β-hydroxyandrosta-1,4-dien-3-one-17β-carboxylate] | 0 | 0 | 0 | 1 | 1 | 3 | 0 | 0 | 0 | 1 | 1 | 1 | 0 | 0 | 1 | 2 | 88 | > 90 | 
